Experimental findings from ChEMBL document CHEMBL1142912, “Novel piperazines: potent melanocortin-4 receptor antagonists with anxiolytic-like activity” (Bioorg Med Chem, 2007) are described below.

Molecules are shown by their SMILES. pIC50: −log10 of the molar value. The source made the active and inactive calls. No cut-off for these calls is given here. Bounds are passed on as bounds.

Assay [1] deals with Norepinephrine transporter (Rattus norvegicus, UniProt Q9WTR4). The assay is described as follows: Displacement of [3H]nisoxetine from NET in rat cortical membrane. The format is cell membranes.
Assay [2] has as its target Sodium-dependent serotonin transporter (Rattus norvegicus, UniProt P31652). The assay is described as follows: Displacement of [3H]paroxetine from serotonin transporter in rat cortical membrane. It counts as cell membranes.
Assay [3] addresses T1, Adrenergic receptor alpha-1 (Rattus norvegicus, UniProt P15823+P23944+P43140).
T1 sequence (P15823 whole entry): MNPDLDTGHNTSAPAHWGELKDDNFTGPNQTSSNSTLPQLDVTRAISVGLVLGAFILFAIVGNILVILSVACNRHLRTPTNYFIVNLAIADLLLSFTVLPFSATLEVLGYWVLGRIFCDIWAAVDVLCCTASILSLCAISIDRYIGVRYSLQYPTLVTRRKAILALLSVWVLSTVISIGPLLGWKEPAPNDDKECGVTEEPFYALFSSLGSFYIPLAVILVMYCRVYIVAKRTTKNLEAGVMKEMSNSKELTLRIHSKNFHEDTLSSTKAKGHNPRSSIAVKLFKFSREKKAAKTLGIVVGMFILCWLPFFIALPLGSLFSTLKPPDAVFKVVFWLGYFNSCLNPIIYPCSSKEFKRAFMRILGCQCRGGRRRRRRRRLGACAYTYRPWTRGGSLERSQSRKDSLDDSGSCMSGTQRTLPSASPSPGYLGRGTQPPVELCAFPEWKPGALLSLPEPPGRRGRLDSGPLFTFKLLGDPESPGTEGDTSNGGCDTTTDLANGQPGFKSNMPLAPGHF
T1 sequence (P23944 whole entry): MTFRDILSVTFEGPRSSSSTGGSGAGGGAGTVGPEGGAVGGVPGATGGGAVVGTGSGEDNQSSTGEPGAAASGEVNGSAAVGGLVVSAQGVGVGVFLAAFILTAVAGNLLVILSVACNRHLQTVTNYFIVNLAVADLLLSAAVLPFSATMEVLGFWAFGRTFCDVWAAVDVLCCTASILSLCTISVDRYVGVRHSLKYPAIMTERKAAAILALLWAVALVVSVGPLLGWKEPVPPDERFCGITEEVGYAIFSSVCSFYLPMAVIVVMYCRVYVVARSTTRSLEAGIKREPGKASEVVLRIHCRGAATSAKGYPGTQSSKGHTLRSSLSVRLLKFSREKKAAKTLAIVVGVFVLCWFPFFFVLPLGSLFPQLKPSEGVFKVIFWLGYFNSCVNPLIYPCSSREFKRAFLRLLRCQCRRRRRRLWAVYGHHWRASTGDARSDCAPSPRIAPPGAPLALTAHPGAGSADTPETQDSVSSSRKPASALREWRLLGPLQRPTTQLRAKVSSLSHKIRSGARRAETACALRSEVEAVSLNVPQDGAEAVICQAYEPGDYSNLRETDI
T1 sequence (P43140 whole entry): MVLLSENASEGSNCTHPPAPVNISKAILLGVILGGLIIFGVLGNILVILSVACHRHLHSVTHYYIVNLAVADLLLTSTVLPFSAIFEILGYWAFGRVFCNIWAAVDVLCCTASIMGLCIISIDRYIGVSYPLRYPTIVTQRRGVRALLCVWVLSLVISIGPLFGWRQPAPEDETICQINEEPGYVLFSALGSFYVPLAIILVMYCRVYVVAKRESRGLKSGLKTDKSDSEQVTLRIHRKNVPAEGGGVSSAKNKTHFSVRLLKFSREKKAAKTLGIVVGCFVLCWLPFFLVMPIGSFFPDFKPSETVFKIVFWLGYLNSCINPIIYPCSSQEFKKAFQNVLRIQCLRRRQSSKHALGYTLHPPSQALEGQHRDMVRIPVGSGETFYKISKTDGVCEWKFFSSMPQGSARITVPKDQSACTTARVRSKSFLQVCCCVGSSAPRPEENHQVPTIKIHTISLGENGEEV
The assay is described as follows: Displacement of [3H]prazosin from Adrenergic alpha-1 receptor in rat cortical membrane. The format is cell membranes.

For the next assay, the target named is Melanocortin receptor 4 (Homo sapiens, UniProt P32245). In words: Displacement of [125I][Nle4,D-Phe7]alphaMSH from human MC4R expressed in COS7 cells. The format is cell-based, COS-7. On the technique in general: Displacement assays read how much labelled ligand stays bound in the presence of the test substance.
Assay [4] has as its target Delta-type opioid receptor (Rattus norvegicus, UniProt P33533). In words: Displacement of [3H]DPDPE from delta opioid receptor in rat brain membrane. It counts as cell membranes.
The target in another assay is D(2) dopamine receptor (Rattus norvegicus, UniProt P61169). The assay is described as follows: Displacement of [3H]raclopride from dopamine receptor D2 in rat striatal membrane. The format is cell membranes, Striatum.
In a further assay the target is Mu-type opioid receptor (Rattus norvegicus, UniProt P33535). The assay is described as follows: Displacement of [3H]DAMGO from mu opioid receptor in rat brain membrane. It counts as cell membranes.
Another assay addresses Histamine H1 receptor (Rattus norvegicus, UniProt P31390). In words: Displacement of [3H]pyrilamine from histamine H1 receptor in rat brain membrane. It counts as cell membranes.
The subject of the next assay is Rattus norvegicus. In words: Reversal of stress-induced anxiety-like behavior in Sprague-Dawley rat at 1 mg/kg, po. The format is functional, organism-based. Set-up: dose 1 mg/kg.

Sodium-dependent serotonin transporter, sequence (P31652 whole entry): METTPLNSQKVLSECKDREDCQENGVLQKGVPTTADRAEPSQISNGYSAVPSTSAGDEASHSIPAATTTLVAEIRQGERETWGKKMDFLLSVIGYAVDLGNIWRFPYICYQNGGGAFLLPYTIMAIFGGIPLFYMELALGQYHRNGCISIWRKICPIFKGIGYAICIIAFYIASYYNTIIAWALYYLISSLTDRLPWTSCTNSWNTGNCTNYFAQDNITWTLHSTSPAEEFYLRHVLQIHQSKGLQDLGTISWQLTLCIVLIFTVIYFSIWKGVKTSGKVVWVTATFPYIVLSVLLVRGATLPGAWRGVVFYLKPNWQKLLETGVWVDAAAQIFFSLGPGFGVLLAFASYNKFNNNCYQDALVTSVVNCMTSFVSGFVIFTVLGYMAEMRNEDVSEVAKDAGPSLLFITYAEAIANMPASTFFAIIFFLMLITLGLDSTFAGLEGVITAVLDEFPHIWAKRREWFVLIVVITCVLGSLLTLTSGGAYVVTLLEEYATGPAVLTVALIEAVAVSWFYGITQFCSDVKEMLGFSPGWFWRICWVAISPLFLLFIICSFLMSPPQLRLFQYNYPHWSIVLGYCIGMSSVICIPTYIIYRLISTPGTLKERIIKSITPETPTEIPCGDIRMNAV
Histamine H1 receptor, sequence (P31390 whole entry): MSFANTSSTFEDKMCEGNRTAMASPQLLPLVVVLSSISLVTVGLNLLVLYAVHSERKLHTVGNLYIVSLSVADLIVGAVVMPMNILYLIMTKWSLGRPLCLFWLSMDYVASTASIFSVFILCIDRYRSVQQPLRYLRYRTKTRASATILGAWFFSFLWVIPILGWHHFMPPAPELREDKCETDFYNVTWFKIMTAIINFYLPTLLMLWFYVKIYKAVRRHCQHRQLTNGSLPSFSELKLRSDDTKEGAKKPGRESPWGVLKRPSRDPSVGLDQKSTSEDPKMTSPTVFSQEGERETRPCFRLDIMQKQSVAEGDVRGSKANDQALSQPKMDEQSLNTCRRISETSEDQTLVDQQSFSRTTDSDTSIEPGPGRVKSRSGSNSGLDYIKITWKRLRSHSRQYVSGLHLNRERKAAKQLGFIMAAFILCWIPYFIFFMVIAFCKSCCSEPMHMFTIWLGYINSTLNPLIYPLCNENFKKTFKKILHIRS
D(2) dopamine receptor, sequence (P61169 whole entry): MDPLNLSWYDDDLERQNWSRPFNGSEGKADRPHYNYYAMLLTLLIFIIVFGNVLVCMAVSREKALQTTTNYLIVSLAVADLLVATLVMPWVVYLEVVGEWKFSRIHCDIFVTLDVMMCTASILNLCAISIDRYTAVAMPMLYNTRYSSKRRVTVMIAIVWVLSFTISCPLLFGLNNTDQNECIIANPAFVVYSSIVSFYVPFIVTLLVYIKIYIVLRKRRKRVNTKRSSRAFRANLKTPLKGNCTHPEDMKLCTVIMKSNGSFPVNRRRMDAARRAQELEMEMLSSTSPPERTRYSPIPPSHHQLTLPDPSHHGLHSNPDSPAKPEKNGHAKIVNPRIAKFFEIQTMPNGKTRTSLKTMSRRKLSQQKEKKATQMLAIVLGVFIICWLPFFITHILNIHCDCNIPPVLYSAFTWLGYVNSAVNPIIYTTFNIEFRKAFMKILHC
Delta-type opioid receptor, sequence (P33533 whole entry): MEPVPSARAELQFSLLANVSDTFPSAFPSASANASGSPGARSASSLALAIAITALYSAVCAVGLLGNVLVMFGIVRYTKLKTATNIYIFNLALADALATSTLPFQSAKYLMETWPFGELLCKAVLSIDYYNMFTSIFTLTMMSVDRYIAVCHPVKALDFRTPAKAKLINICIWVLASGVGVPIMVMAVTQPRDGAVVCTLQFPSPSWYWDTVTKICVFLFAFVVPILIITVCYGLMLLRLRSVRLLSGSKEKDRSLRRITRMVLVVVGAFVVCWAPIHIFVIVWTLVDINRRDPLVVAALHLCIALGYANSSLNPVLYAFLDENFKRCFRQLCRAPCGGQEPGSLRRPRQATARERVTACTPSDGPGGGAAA
Norepinephrine transporter, sequence (Q9WTR4 whole entry): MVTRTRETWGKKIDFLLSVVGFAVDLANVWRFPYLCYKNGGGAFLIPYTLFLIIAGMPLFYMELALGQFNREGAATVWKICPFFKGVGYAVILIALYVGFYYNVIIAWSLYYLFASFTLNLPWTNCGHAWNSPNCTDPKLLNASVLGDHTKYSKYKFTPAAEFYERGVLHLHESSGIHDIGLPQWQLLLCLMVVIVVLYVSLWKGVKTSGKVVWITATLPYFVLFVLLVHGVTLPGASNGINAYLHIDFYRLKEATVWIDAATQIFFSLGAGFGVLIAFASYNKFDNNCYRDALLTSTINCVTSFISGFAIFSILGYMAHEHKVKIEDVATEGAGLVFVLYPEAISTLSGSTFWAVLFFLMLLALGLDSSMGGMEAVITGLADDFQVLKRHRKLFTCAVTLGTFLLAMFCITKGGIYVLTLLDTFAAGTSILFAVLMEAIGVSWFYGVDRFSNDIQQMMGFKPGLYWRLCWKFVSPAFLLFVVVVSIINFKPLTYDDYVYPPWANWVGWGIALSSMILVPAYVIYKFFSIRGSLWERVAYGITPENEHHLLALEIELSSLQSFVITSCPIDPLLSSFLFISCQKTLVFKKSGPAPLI
Mu-type opioid receptor, sequence (P33535 whole entry): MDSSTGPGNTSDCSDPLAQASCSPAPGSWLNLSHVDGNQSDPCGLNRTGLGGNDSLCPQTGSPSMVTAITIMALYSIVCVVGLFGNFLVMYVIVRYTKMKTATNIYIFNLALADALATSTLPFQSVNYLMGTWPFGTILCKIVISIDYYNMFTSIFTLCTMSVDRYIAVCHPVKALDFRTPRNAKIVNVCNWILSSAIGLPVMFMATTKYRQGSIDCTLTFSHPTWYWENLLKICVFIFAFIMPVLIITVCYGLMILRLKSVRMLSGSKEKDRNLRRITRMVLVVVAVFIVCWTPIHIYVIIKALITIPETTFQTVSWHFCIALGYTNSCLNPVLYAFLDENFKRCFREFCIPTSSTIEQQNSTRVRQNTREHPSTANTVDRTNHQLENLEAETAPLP
Melanocortin receptor 4, sequence (P32245 whole entry): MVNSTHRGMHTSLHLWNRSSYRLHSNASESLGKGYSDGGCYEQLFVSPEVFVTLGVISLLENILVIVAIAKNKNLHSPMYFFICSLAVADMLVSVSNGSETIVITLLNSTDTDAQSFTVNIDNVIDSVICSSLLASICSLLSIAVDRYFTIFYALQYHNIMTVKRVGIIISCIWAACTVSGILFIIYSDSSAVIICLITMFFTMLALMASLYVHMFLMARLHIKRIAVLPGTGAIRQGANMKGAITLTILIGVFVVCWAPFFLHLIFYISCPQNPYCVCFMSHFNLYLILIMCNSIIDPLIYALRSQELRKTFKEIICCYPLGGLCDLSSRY

As for `COc1ccc2ccccc2c1CCCCN1CCN(CC(c2ccc(F)cc2)C2CCN(C(C)C)CC2)CC1.Cl` (racemic), the pIC50 (usually the negative decadic logarithm of the IC50, by convention in mol/L) in [1] was 5.55; in [2], 6.06; at Melanocortin receptor 4, 7.39; in assay [4], under 5.00; at D(2) dopamine receptor it was under 6.00; at Mu-type opioid receptor it was under 5.00. Besides, the pIC50 at Histamine H1 receptor was under 6.00. Besides, the half-inhibitory concentration (IC50) (usually the concentration needed to halve the response being measured) in assay [3] is recorded as over 1000 nM.
As to `CC(C)N1CCC(C(CN2CCN(CCCc3ccccc3-c3ccccc3)CC2)c2ccc(F)cc2)CC1.Cl` (racemic), the negative logarithm of the IC50 (pIC50) in [1] is 5.93; in [2], 6.02; on Melanocortin receptor 4 it was 7.71; in assay [4] it was under 5.00; on D(2) dopamine receptor, 6.37; on Mu-type opioid receptor, under 5.00. Also, the pIC50 on Histamine H1 receptor is under 6.00. The 50% inhibitory concentration (IC50) in [3] is given as over 1000 nM. The result in the assay with Rattus norvegicus was Active.
In the case of `CC(C)N1CCC(C(CN2CCN(CCCc3ccccc3-c3ccc(F)cc3)CC2)c2ccc(F)cc2)CC1.Cl` (racemic), the pIC50 was 6.14 in assay [1]; 5.40 in [2]; 7.84 on Melanocortin receptor 4; under 5.00 in [4]; 6.09 on D(2) dopamine receptor; under 5.00 on Mu-type opioid receptor. At Histamine H1 receptor, the negative-log IC50 (pIC50) was under 6.00. Moreover, the half-inhibitory concentration (IC50) in assay [3] was over 1000 nM.
At Melanocortin receptor 4, `CC(C)N1CCC(C(CN2CCN(CCCc3cc(F)ccc3-c3ccccc3)CC2)c2ccc(F)cc2)CC1` (racemic) had a negative-log IC50 (pIC50) of 7.28.
At Melanocortin receptor 4, `CN1CCC(C(CN2CCN(CCCCc3cccc4ccccc34)CC2)c2ccc(F)cc2)CC1` (racemic) had a negative-log IC50 (pIC50) of 6.48.
In the case of `CC(C)N1CCC(C(CN2CCN(CCCc3c(F)cccc3-c3ccccc3)CC2)c2ccc(F)cc2)CC1.Cl` (racemic), the pIC50 in assay [1] is 6.31; in assay [2] it was 6.14; at Melanocortin receptor 4 it was 7.74; in [4], under 5.00; on D(2) dopamine receptor, under 6.00; on Mu-type opioid receptor, under 5.00. Besides, on Histamine H1 receptor, the negative logarithm of the IC50 (pIC50) is under 6.00. This compound registered a half-inhibitory concentration (IC50) in [3] of over 1000 nM.
Take `CC(C)N1CCC(C(CN2CCN(CCCc3cccc(F)c3-c3ccccc3)CC2)c2ccc(F)cc2)CC1.Cl` (racemic): the negative logarithm of the IC50 (pIC50) in assay [1] was 5.40; in assay [2], 5.50; on Melanocortin receptor 4, 7.70; in assay [4], under 5.00; at D(2) dopamine receptor, 6.32; at Mu-type opioid receptor it was under 5.00. Moreover, at Histamine H1 receptor, the negative-log IC50 (pIC50) is under 6.00. This compound gave a 50% inhibitory concentration (IC50) in assay [3] of over 1000 nM. The outcome in the assay on Rattus norvegicus was Active.
As to `CC(C)N1CCC(C(CN2CCN(CCCc3ccccc3-c3cccc(F)c3)CC2)c2ccc(F)cc2)CC1.Cl` (racemic), the pIC50 is 6.27 in assay [1]; 5.67 in assay [2]; 7.63 on Melanocortin receptor 4; under 5.00 in assay [4]; 6.09 at D(2) dopamine receptor; under 5.00 on Mu-type opioid receptor. The pIC50 at Histamine H1 receptor was under 6.00. In addition, the concentration for half-maximal inhibition (IC50) in assay [3] is over 1000 nM.
On Melanocortin receptor 4, `CC(C)N1CCC(C(CN2CCN(CCCc3ccc(F)cc3-c3ccccc3)CC2)c2ccc(F)cc2)CC1` (racemic) had a pIC50 of 7.28.
Same read-out and setting: for `CC(C)N1CCC(C(CN2CCN(CCCc3ccccc3-c3ccccc3F)CC2)c2ccc(F)cc2)CC1` (racemic) the value was 7.01.
